In patent US8754071B2 (priority 2011, dated 2014):

Target: T1, c-kit (Homo sapiens, UniProt P10721)
T1 construct: human Mo7e cells which endogenously express c-kit; endogenous in cells; host or cells: human Mo7e cells (promegakaryocytic leukemia line), stimulated with human recombinant SCF
Assay: Mo7e cell proliferation assay (SCF dependent proliferation)
Assay type: cell-based
Conditions: Table 1; human Mo7e cells stimulated with SCF, 48 hours, CellTiter Glo; 1% FBS; read-out: c-kit (Mo7e)
Description: Mo7e Cell Proliferation Assay The compounds of Table 1 and Table 2 were tested for inhibition of SCF dependent proliferation using human Mo7e cells which endogenously express c-kit in a 384 well format. […] After 48 hours of incubation at 37° C., cell viability was measured by adding 25 uL of CellTiter Glo (Promega) to the cells and the luminescence was measured by a […] camera (Molecular Devices). […] The IC50 value is given as that concentration of the test compound in question that provoke a response halfway between the baseline and maximum responses.

T1 sequence (P10721 26-976): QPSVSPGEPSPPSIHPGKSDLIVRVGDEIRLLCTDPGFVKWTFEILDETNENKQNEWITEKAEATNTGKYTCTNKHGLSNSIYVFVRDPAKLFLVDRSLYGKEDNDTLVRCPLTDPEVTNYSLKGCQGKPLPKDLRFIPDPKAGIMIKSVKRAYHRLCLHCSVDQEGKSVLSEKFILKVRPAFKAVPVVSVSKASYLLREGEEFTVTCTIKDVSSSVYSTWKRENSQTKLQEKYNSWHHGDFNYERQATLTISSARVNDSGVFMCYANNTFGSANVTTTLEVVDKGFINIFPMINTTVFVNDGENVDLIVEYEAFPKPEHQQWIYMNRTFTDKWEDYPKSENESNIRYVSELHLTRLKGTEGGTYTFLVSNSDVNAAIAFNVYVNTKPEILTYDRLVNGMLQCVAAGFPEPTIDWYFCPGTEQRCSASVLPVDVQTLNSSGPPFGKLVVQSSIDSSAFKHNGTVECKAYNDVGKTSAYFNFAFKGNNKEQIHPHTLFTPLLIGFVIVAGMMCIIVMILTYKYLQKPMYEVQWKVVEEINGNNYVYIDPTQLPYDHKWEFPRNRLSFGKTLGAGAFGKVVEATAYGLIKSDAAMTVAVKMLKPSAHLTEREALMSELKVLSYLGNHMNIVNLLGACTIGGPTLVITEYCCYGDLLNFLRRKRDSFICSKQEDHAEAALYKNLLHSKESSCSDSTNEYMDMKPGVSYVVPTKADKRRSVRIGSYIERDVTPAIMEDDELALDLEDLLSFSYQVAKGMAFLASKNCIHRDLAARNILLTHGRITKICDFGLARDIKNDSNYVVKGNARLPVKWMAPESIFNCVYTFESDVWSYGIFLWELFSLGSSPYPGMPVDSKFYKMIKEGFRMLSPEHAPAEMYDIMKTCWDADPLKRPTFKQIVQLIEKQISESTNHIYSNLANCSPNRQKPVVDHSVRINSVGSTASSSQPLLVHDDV

Structure (SMILES)	IC50
Cc1ccc(-c2nc(N3CCC3)no2)cc1NC(=O)c1cnc2ccccn12 [F1]	0.049 µM
Cc1ccc(-c2nc(N3CC(F)(F)C3)no2)cc1NC(=O)c1cnc2ccccn12 [F2]	0.013 µM
Cc1ccc(-c2nc(N3C[C@@H]4C[C@@H](C3)O4)no2)cc1NC(=O)c1cnc2ccccn12 [F3]	0.09 µM
Cc1ccc(-c2nc(N3CCC(F)(F)CC3)no2)cc1NC(=O)c1cnc2ccccn12 [F4]	0.035 µM
Cc1ccc(-c2nc(N3CCC(F)CC3)no2)cc1NC(=O)c1cnc2ccccn12 [F5]	0.034 µM
Cc1ccc2ncc(C(=O)Nc3cc(-c4noc(N5CC(O)(C(F)(F)F)C5)n4)ccc3C)n2c1 [F6]	0.026 µM
Cc1ccc(-c2noc(C3CCOC3)n2)cc1NC(=O)c1cnc2ccccn12 (centres unmarked) [F7]	0.078 µM
Cc1ccc(-c2noc(C3CCCCO3)n2)cc1NC(=O)c1cnc2ccccn12 (centres unmarked) [F8]	0.042 µM
COC(=O)N1CCCCC1c1nc(-c2ccc(C)c(NC(=O)c3cnc4ccccn34)c2)no1 (centres unmarked) [F9]	0.035 µM
Cc1ccc(-c2noc([C@H]3CCC(F)(F)CO3)n2)cc1NC(=O)c1cnc2ccccn12 [F12]	0.032 µM

Second part, the compound after the results:

IC50	Structure (SMILES)
0.623 µM	Cc1ccc(-c2noc(C3CN(C(=O)OC(C)(C)C)C3)n2)cc1NC(=O)c1cnc2ccccn12 [F13, tert-butyl 3-(3-(3-(imidazo[1,2-a]pyridine-3-carboxamido)-4-methylphenyl)-1,2,4-oxadiazol-5-yl)azetidine-1-carboxylate]
0.042 µM	Cc1ccc(-c2noc(C3CN(S(C)(=O)=O)C3)n2)cc1NC(=O)c1cnc2ccccn12 [F14]
0.02 µM	COC(=O)N1CC(c2nc(-c3ccc(C)c(NC(=O)c4cnc5ccccn45)c3)no2)C1 [F15, methyl 3-(3-(3-(imidazo[1,2-a]pyridine-3-carboxamido)-4-methylphenyl)-1,2,4-oxadiazol-5-yl)azetidine-1-carboxylate]
0.035 µM	CCCS(=O)(=O)N1CC(c2nc(-c3ccc(C)c(NC(=O)c4cnc5ccccn45)c3)no2)C1 [F16]
0.027 µM	Cc1ccc(-c2noc(CC3CCOCC3)n2)cc1NC(=O)c1cnc2ccccn12 [F17]
0.064 µM	Cc1ccc(-c2noc(CC3CCCO3)n2)cc1NC(=O)c1cnc2ccccn12 (centres unmarked) [F18]
0.033 µM	CCS(=O)(=O)N1CC(c2nc(-c3ccc(C)c(NC(=O)c4cnc5ccccn45)c3)no2)C1 [F19]
0.095 µM	Cc1ccc(-c2noc(CCCN3CCOCC3)n2)cc1NC(=O)c1cnc2ccccn12 [F20]
0.044 µM	Cc1ccc(-c2noc(CN3CC(F)(F)C3)n2)cc1NC(=O)c1cnc2ccccn12 [F21]
0.073 µM	Cc1ccc(-c2noc(CN3CCOCC3)n2)cc1NC(=O)c1cnc2ccccn12 [F22, N-(2-methyl-5-(5-(morpholinomethyl)-1,2,4-oxadiazol-3-yl)phenyl)imidazo[1,2-a]pyridine-3-carboxamide]
0.088 µM	Cc1ccc(-c2noc(C3CN(S(N)(=O)=O)C3)n2)cc1NC(=O)c1cnc2ccccn12 [F23, N-(2-methyl-5-(5-(1-sulfamoylazetidin-3-yl)-1,2,4-oxadiazol-3-yl)phenyl)imidazo[1,2-a]pyridine-3-carboxamide]
0.08 µM	Cc1ccc(-c2noc([C@@H]3CCN3C(=O)OC(C)(C)C)n2)cc1NC(=O)c1cnc2ccccn12 [F24]
0.046 µM	Cc1ccc(-c2noc([C@@H]3CCN3S(C)(=O)=O)n2)cc1NC(=O)c1cnc2ccccn12 [F25]
0.103 µM	COC(=O)NC1(c2nc(-c3ccc(C)c(NC(=O)c4cnc5ccccn45)c3)no2)COC1 [F26, methyl (3-(3-(3-(imidazo[1,2-a]pyridine-3-carboxamido)-4-methylphenyl)-1,2,4-oxadiazol-5-yl)oxetan-3-yl)carbamate]

Same assay, conditions: c-kit (Mo7e) μM, Table 1; human Mo7e cells stimulated with SCF, 48 hours, CellTiter Glo; 1% FBS

Structure (SMILES)	IC50
Cc1ccc(-c2noc(C3CCC(F)(F)CO3)n2)cc1NC(=O)c1cnc2ccccn12 (centres unmarked) [F10, N-(5-(5-(5,5-difluorotetrahydro-2H-pyran-2-yl)-1,2,4-oxadiazol-3-yl)-2-methylphenyl)imidazo[1,2-a]pyridine-3-carboxamide]	0.023 µM
Cc1ccc(-c2noc([C@@H]3CCC(F)(F)CO3)n2)cc1NC(=O)c1cnc2ccccn12 [F11]	0.023 µM
